Assay results: patent US8012998B2, “Pyrrolidine aryl-ether as NK-3 receptor antagonists” (Hoffmann—LA Roche Inc., priority 2007, dated 2011)

Each compound was assayed against T1, human NK3 receptor (Homo sapiens, UniProt P29371) (assay: [3H]SR142801 competition binding assay (hNK3 receptor binding)). Conditions: [3H]SR142801 radioligand; membranes from HEK293 cells transiently expressing recombinant human NK3 receptor; Ki by Cheng-Prussoff; read-out: KiNK3 h.
T1 construct: expressed in transfected cells; host or cells: HEK293 cells (transient expression), membrane preparation
T1 sequence (P29371 1-465): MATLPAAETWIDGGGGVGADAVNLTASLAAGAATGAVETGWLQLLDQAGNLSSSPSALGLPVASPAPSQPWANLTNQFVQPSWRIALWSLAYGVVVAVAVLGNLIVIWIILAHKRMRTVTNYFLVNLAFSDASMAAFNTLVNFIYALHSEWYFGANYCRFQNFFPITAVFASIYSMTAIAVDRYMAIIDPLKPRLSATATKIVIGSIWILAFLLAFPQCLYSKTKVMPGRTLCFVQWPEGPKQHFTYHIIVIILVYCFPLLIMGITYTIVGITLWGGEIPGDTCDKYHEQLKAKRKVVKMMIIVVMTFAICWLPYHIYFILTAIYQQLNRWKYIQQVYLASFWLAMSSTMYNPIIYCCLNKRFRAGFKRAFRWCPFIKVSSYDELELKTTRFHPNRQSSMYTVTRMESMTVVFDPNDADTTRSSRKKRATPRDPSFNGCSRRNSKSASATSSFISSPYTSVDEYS
Method: [^3H]SR^142801 Competition Binding Assay
hNK3 receptor binding experiment were performed using [^3H]SR^142801 (Catalog No. TRK1035, specific activity: 74.0 Ci/mmol, Amersham, GE Healthcare UK limited, Buckinghamshire, UK) and membrane isolated from HEK293 cells transiently expressing recombinant human NK3 receptor. After thawing, the membrane homogenates were centrifuged at 48,000×g for 10 min at 4° C., the pellets were resuspended in the 50 mM Tris-HCl, 4 mM MnCl2, 1 μM phosphoramidon, 0.1% BSA binding buffer at pH 7.4 to a final assay concentration of 5 μg protein/well. […] At the end of the incubation, membranes were filtered onto unitfilter (96-well white microplate with bonded GF/C filter preincubated 1 h in 0.3% PEI +0.3% BSA, Packard BioScience, Meriden, Conn.) with a Filtermate 196 harvester (Packard BioScience) and washed 4 times with ice-cold 50 mM Tris-HCl, pH 7.4 buffer. Nonspecific binding was measured in the presence of 10 μM SB222200 for both radioligands. The radioactivity on the filter was counted (5 min) on a Packard Top-count microplate scintillation counter with quenching correction after addition of 45 μl of microscint 40 (Canberra Packard S.A., Zutrich, Switzerland) and shaking for 1 h. Inhibition curves were fitted according to the Hill equation: y=100/(1+(x/IC50)^nH), where nH=slope factor using Excel-fit 4 software (Microsoft). IC50 values were derived from the inhibition curve and the affinity constant (Ki) values were calculated using the Cheng-Prussoff equation Ki=IC50/(1+[L]/KD) where [L] is the concentration of radioligand and KD is its dissociation constant at the receptor, derived from the saturation isotherm. All experiments were performed in duplicate and the mean ± standard error (SEM) of the individual Ki values was calculated.

| Compound | Ki |
| --- | --- |
| COc1ccc(C(=O)N2C[C@@H]([C@@H](C)Oc3ccc(F)cn3)[C@H](c3ccc(Cl)c(Cl)c3)C2)cn1 (racemic) [Example 26, {(3RS,4SR)-3-(3,4-Dichloro-phenyl)-4-[(RS)-1-(5-fluoro-pyridin-2-yloxy)-ethyl]-pyrrolidin-1-yl}-(6-methoxy-pyridin-3-yl)-methanone] | 66 nM |
| Cc1nccn1-c1ccc(C(=O)N2C[C@H]([C@H](C)Oc3ccc(C#N)cn3)[C@@H](c3ccc(Cl)c(Cl)c3)C2)cc1 (racemic) [Example 64, 6-((SR)-1-{(3RS,4SR)-4-(3,4-Dichloro-phenyl)-1-[4-(2-methyl-imidazol-1-yl)-benzoyl]-pyrrolidin-3-yl}-ethoxy)-nicotinonitrile] | 35.7 nM |
| Cc1ncc(C(=O)N2CC(c3ccc(Cl)c(Cl)c3)[C@@H]([C@H](C)Oc3ccc(Cl)cn3)C2)cn1 (single isomer, unassigned) [Example 40] | 6.8 nM |
| C[C@H](Oc1ccc(C#N)cn1)[C@H]1CN(C(=O)c2ccc(C#N)cc2F)C[C@@H]1c1ccc(Cl)c(Cl)c1 (racemic) [Example 67, 6-{(SR)-1-[(3RS,4SR)-1-(4-Cyano-2-fluoro-benzoyl)-4-(3,4-dichloro-phenyl)-pyrrolidin-3-yl]-ethoxy}-nicotinonitrile] | 5.8 nM |
| COc1cc(C(=O)N2C[C@@H]([C@@H](C)Oc3ccc(Cl)cn3)[C@H](c3ccc(Cl)c(Cl)c3)C2)ccn1 (racemic) [Example 18, [(3SR,4RS)-3-[(RS)-1-(5-Chloro-pyridin-2-yloxy)-ethyl]-4-(3,4-dichloro-phenyl)-pyrrolidin-1-yl]-(2-methoxy-pyridin-4-yl)-methanone] | 22.7 nM |
| C[C@H](Oc1ccc(Cl)cn1)[C@H]1CN(C(=O)c2ccc(C#N)nc2)C[C@@H]1c1ccc(Cl)c(Cl)c1 (single isomer, unassigned) [Example 54] | 2 nM |
| Cc1ncc(C(=O)N2C[C@H]([C@H](C)Oc3ccc(C#N)cn3)[C@@H](c3ccc(Cl)c(Cl)c3)C2)c(C)n1 (racemic) [Example 36, 6-{(SR)-1-[(3RS,4SR)-4-(3,4-Dichloro-phenyl)-1-(2,4-dimethyl-pyrimidine-5-carbonyl)-pyrrolidin-3-yl]-ethoxy}-nicotinonitrile] | 84 nM |
| C[C@@H](Oc1ccc(Cl)cn1)[C@@H]1CN(C(=O)c2cnc(C#N)nc2)C[C@H]1c1ccc(Cl)c(Cl)c1 [Example 50, 5-[(3S,4R)-3-[(R)-1-(5-Chloro-pyridin-2-yloxy)-ethyl]-4-(3,4-dichloro-phenyl)-pyrrolidine-1-carbonyl]-pyrimidine-2-carbonitrile] | 4.6 nM |
| C[C@@H](Oc1ccc(Cl)cn1)[C@@H]1CN(C(=O)c2ccc(CCN(C)C)cc2)C[C@H]1c1ccc(Cl)c(Cl)c1 [Example 44, [(3S,4R)-3-[(R)-1-(5-Chloro-pyridin-2-yloxy)-ethyl]-4-(3,4-dichloro-phenyl)-pyrrolidin-1-yl]-[4-(2-dimethylamino-ethyl)-phenyl]-methanone] | 11.8 nM |
| Cc1cc(C(=O)N2C[C@@H]([C@@H](C)Oc3ccc(Cl)cn3)[C@H](c3ccc(Cl)c(Cl)c3)C2)c(C)o1 (racemic) [Example 28, [(3SR,4RS)-3-[(RS)-1-(5-Chloro-pyridin-2-yloxy)-ethyl]-4-(3,4-dichloro-phenyl)-pyrrolidin-1-yl]-(2,5-dimethyl-furan-3-yl)-methanone] | 59 nM |
| C[C@H](Oc1ccc(C(F)(F)F)cn1)[C@H]1CN(C(=O)c2ccc(C#N)cc2)C[C@@H]1c1ccc(Cl)c(Cl)c1 (racemic) [Example 55, 4-{(3SR,4RS)-3-(3,4-Dichloro-phenyl)-4-[(SR)-1-(5-trifluoromethyl-pyridin-2-yloxy)-ethyl]-pyrrolidine-1-carbonyl}-benzonitrile] | 6.5 nM |
| CCc1noc(-c2ccc(C(=O)N3C[C@H]([C@H](C)Oc4ccc(C#N)cn4)[C@@H](c4ccc(Cl)c(Cl)c4)C3)cc2)n1 (racemic) [Example 62, 6-((SR)-1-{(3RS,4SR)-4-(3,4-Dichloro-phenyl)-1-[4-(3-ethyl-[1,2,4]oxadiazol-5-yl)-benzoyl]-pyrrolidin-3-yl}-ethoxy)-nicotinonitrile] | 59.4 nM |
| C[C@H](Oc1ccc(C#N)cn1)[C@H]1CN(C(=O)c2ccc(OCC(F)(F)F)nc2)C[C@@H]1c1ccc(Cl)c(Cl)c1 (racemic) [Example 76, 6-((SR)-1-{(3RS,4SR)-4-(3,4-Dichloro-phenyl)-1-[6-(2,2,2-trifluoro-ethoxy)-pyridine-3-carbonyl]-pyrrolidin-3-yl}-ethoxy)-nicotinonitrile] | 3.5 nM |
| C[C@@H](Oc1ccc(Cl)cn1)[C@@H]1CN(C(=O)c2ccc(CN(C)C)cc2)C[C@H]1c1ccc(Cl)c(Cl)c1 (racemic) [Example 42, [(3SR,4RS)-3-[(RS)-1-(5-Chloro-pyridin-2-yloxy)-ethyl]-4-(3,4-dichloro-phenyl)-pyrrolidin-1-yl]-(4-dimethylaminomethyl-phenyl)-methanone] | 25.5 nM |
| COc1ccc(C(=O)N2C[C@@H]([C@@H](C)Oc3ccc(Cl)cn3)[C@H](c3ccc(Cl)c(Cl)c3)C2)cn1 (racemic) [Example 11, [(3SR,4RS)-3-[(RS)-1-(5-Chloro-pyridin-2-yloxy)-ethyl]-4-(3,4-dichloro-phenyl)-pyrrolidin-1-yl]-(6-methoxy-pyridin-3-yl)-methanone] | 11.8 nM |

Other lines, results leading:

| Ki | Compound |
| --- | --- |
| 56.2 nM | Cc1ncc(C(=O)N2C[C@H]([C@H](CO)Oc3ccc(Cl)cn3)[C@@H](c3ccc(Cl)c(Cl)c3)C2)cn1 (racemic) [Example 87, [(3RS,4SR)-3-[(RS)-1-(5-Chloro-pyridin-2-yloxy)-2-hydroxy-ethyl]-4-(3,4-dichloro-phenyl)-pyrrolidin-1-yl]-(2-methyl-pyrimidin-5-yl)-methanone] |
| 4.3 nM | CCc1ncc(C(=O)N2C[C@H]([C@H](C)Oc3ccc(C#N)cn3)[C@@H](c3ccc(Cl)c(Cl)c3)C2)cc1C (racemic) [Example 86, 6-{(SR)-1-[(3RS,4SR)-4-(3,4-Dichloro-phenyl)-1-(6-ethyl-5-methyl-pyridine-3-carbonyl)-pyrrolidin-3-yl]-ethoxy}-nicotinonitrile] |
| 4.8 nM | C[C@H](Oc1ccc(C(F)(F)F)cn1)[C@H]1CN(C(=O)c2ccc(Cl)nc2)C[C@@H]1c1ccc(Cl)c(Cl)c1 (racemic) [Example 81, (6-Chloro-pyridin-3-yl)-{(3SR,4RS)-3-(3,4-dichloro-phenyl)-4-[(SR)-1-(5-trifluoromethyl-pyridin-2-yloxy)-ethyl]-pyrrolidin-1-yl}-methanone] |
| 7.5 nM | C[C@H](Oc1ccc(C(F)(F)F)cn1)[C@H]1CN(C(=O)c2cnc(C3CC3)nc2)C[C@@H]1c1ccc(Cl)c(Cl)c1 (racemic) [Example 85, (2-Cyclopropyl-pyrimidin-5-yl)-{(3SR,4RS)-3-(3,4-dichloro-phenyl)-4-[(SR)-1-(5-trifluoromethyl-pyridin-2-yloxy)-ethyl]-pyrrolidin-1-yl}-methanone] |
| 2.6 nM | Cc1cc(C(=O)N2C[C@H]([C@H](C)Oc3ccc(Cl)cn3)[C@@H](c3ccc(Cl)c(F)c3)C2)cnn1 [Example 107, {(3S,4R)-3-(4-Chloro-3-fluoro-phenyl)-4-[(S)-1-(5-chloro-pyridin-2-yloxy)-ethyl]-pyrrolidin-1-yl}-(6-methyl-pyridazin-4-yl)-methanone] |
| 91.4 nM | Cc1ncc(C(=O)N2C[C@H]([C@H](C)Oc3ccc(C#N)cn3)[C@@H](c3ccc(F)c(Cl)c3)C2)cn1 [Example 102, 6-{(S)-1-[(3R,4S)-4-(3-Chloro-4-fluoro-phenyl)-1-(2-methyl-pyrimidine-5-carbonyl)-pyrrolidin-3-yl]-ethoxy}-nicotinonitrile] |
| 25.7 nM | Cc1ncc(C(=O)N2C[C@H]([C@H](C)Oc3ccc(Cl)cn3)[C@@H](c3ccc(F)c(F)c3)C2)cn1 [Example 103, [(3R,4S)-3-[(S)-1-(5-Chloro-pyridin-2-yloxy)-ethyl]-4-(3,4-difluoro-phenyl)-pyrrolidin-1-yl]-(2-methyl-pyrimidin-5-yl)-methanone] |
| 9.1 nM | Cc1cc(C(=O)N2C[C@H]([C@H](C)Oc3ccc(C#N)cn3)[C@@H](c3ccc(Cl)c(Cl)c3)C2)cnn1 (racemic) [Example 89, 6-{(SR)-1-[(3RS,4SR)-4-(3,4-Dichloro-phenyl)-1-(6-methyl-pyridazine-4-carbonyl)-pyrrolidin-3-yl]-ethoxy}-nicotinonitrile] |
